Results as given in patent publication US9464084B2, “P2X7 modulators” (Janssen Pharmaceutica NV, priority 2013, dated 2016).

Key:
[1] = biological target: P2X7 (Homo sapiens (Human), UniProt Q99572); assay: P2X7 antagonism in human PBMCs (LPS + Bz-ATP induced IL-1β release, ELISA); type: cell-based; conditions: LPS 30 ng/ml, Bz-ATP 0.5 mM; for PBMC 10 μM (% control): compound 10 μM; for PBMC 1 μM (% control): compound 1 μM;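 as to all read-outs here: PBMCs from donor human blood, with a further 1.5 h incubation of the cells in the assay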
Chain of P2X7 (Q99572 whole entry): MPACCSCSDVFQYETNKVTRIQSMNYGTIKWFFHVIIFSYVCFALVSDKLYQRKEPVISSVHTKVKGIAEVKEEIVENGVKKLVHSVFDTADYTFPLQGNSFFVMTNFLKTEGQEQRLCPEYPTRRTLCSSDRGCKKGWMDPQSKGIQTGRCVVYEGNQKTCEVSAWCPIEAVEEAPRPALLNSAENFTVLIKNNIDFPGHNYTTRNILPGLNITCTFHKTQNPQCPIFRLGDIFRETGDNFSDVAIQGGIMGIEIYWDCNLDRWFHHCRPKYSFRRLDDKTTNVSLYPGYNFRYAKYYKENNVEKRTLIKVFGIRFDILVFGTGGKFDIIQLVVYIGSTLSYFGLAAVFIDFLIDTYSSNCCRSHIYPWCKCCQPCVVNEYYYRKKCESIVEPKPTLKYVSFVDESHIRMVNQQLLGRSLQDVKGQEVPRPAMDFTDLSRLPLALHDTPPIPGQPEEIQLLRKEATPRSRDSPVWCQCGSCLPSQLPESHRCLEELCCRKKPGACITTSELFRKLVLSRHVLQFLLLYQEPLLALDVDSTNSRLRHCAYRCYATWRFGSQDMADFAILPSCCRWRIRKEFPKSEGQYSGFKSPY

[2] = biological target: rat P2X7 (Rattus norvegicus (Rat), UniProt Q64663); assay: Ca2+ flux (FLIPR) in 1321N1 cells expressing recombinant rat P2X7 channel; type: cell-based; conditions: 250 μM BzATP;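 also: Calcium-4 dye fluorescence change read 180 s after agonist addition, following 30 min cell preincubation with test compound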
Chain of rat P2X7 (Q64663 whole entry): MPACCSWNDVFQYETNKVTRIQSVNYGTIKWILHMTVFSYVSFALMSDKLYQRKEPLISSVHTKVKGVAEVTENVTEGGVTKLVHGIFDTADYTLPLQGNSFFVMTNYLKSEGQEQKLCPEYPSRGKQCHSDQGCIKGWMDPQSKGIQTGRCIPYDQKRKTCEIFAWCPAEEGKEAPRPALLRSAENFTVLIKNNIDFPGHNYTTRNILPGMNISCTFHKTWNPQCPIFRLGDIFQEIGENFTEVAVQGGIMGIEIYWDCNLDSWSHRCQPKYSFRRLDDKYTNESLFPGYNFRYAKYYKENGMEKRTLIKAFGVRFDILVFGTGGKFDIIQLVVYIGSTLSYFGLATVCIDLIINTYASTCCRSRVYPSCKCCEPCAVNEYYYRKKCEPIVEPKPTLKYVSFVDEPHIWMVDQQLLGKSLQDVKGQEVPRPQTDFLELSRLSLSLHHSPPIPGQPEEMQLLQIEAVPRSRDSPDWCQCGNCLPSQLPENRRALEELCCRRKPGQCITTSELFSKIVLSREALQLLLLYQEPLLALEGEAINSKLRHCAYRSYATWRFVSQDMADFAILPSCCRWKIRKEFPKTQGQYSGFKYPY
Procedure: Cells were seeded at a density of 25000 cells/well (96-well clear bottom black walled plates) in 100 μl volume/well. On the day of the experiment, cell plates were washed with assay buffer, containing (in mM): 130 NaCl, 2 KCl, 1 CaCl2, 1 MgCl2, 10 HEPES, 5 glucose; pH 7.40 and 300 mOs. After the wash, cells were loaded with the Calcium-4 dye (Molecular Device) and incubated in the dark for 60 minutes. Test compounds were prepared at 250× the test concentration in neat DMSO. Intermediate 96-well compound plates were prepared by transferring 1.2 μL of the compound into 300 μL of assay buffer. A further 3× dilution occurred when transferring 50 μL/well of the compound plate to 100 μL/well in the cell plate. Cells were incubated with test compounds and dye for 30 minutes. […] The fluorescence change was measured 180 seconds after adding the agonist.

| SMILES | PBMC 10 μM (% control) [1] [% control] | IC50 [2] [nM] | PBMC 1 μM (% control) [1] [% control] |
| --- | --- | --- | --- |
| COc1ccnc(-n2nnc3c2CCN(C(=O)c2cccc(C(F)(F)F)c2Cl)C3)c1 [Example 136, (2-Chloro-3-(trifluoromethyl)phenyl)(1-(4-methoxypyridin-2-yl)-6,7-dihydro-1H-[1,2,3]triazolo[4,5-c]pyridin-5(4H)-yl)methanone] | 5.3 | 133 | – |
| O=C(c1cccc(C(F)(F)F)c1Cl)N1CCc2c(ncn2-c2ccccn2)C1CF (centres unmarked) [Example 32, (2-Chloro-3-(trifluoromethyl)phenyl)(4-(fluoromethyl)-1-(pyridin-2-yl)-6,7-dihydro-1H-imidazo[4,5-c]pyridin-5(4H)-yl)methanone] | 1.9 | 65.5 | – |
| Cc1nc(-n2nnc3c2CCN(C(=O)c2cccc(C(F)(F)F)c2Cl)C3C)ncc1F (centres unmarked) [Example 230, (2-chloro-3-(trifluoromethyl)phenyl)(1-(5-fluoro-4-methylpyrimidin-2-yl)-4-methyl-6,7-dihydro-1H-[1,2,3]triazolo[4,5-c]pyridin-5(4H)-yl)methanone] | 2.9 | 89.5 | – |
| CC1c2ncn(-c3ccc(F)cn3)c2C=CN1C(=O)c1cccc(C(F)(F)F)c1Cl (centres unmarked) [Example 321, (2-chloro-3-(trifluoromethyl)phenyl)(1-(5-fluoropyridin-2-yl)-4-methyl-1H-imidazo[4,5-c]pyridin-5(4H)-yl)methanone] | 14.1 | 589 | – |
| CC1(C)c2ncn(-c3ccccc3)c2CCN1C(=O)c1cccc(C(F)(F)F)c1Cl [Example 53, 5-{[2-Chloro-3-(trifluoromethyl)phenyl]carbonyl}-4,4-dimethyl-1-phenyl-4,5,6,7-tetrahydro-1H-imidazo[4,5-c]pyridine] | – | 4950 | 99.0 |
| C[C@@H]1c2n[nH]c(-c3ncc(F)cn3)c2CCN1C(=O)c1cccc(C(F)(F)F)c1Cl (single isomer, unassigned) [Example 223, (R*)-(2-chloro-3-(trifluoromethyl)phenyl)(3-(5-fluoropyrimidin-2-yl)-7-methyl-4,5-dihydro-2H-pyrazolo[3,4-c]pyridin-6(7H)-yl)methanone] | 1.8 | 564 | – |
| C[C@@H]1c2nnn(-c3ccn(CCF)n3)c2CCN1C(=O)c1cccc(C(F)(F)F)c1Cl (single isomer, unassigned) [Example 171, (R*)-(2-Chloro-3-(trifluoromethyl)phenyl)(1-(1-(2-fluoroethyl)-1H-pyrazol-3-yl)-4-methyl-6,7-dihydro-1H-[1,2,3]triazolo[4,5-c]pyridin-5(4H)-yl)methanone] | 28.7 | > 10000 | – |
| Cc1cc(C)nc(-n2nnc3c2CCN(C(=O)c2cccc(Cl)c2Cl)C3C)n1 (centres unmarked) [Example 179, (2,3-dichlorophenyl)(1-(4,6-dimethylpyrimidin-2-yl)-4-methyl-6,7-dihydro-1H-[1,2,3]triazolo[4,5-c]pyridin-5(4H)-yl)methanone] | −4.3 | > 10000 | – |
| C[C@H]1Cc2c(nnn2-c2ncc(F)cn2)CN1C(=O)c1cc(C(F)(F)F)ccc1F (single isomer, unassigned) [Example 232, (S*)-(2-fluoro-5-(trifluoromethyl)phenyl)(1-(5-fluoropyrimidin-2-yl)-6-methyl-6,7-dihydro-1H-[1,2,3]triazolo[4,5-c]pyridin-5(4H)-yl)methanone] | 7.5 | > 10000 | – |
| O=C(c1cccc(C(F)(F)F)c1Cl)N1C=Cc2c(nnn2-c2cnccn2)C1c1ccccc1 (centres unmarked) [Example 76, 5-{[2-Chloro-3-(trifluoromethyl)phenyl]carbonyl}-4-phenyl-1-pyrazin-2-yl-4,5-dihydro-1H-[1,2,3]triazolo[4,5-c]pyridine] | – | 32.4 | 1.6 |
| CCOc1cccnc1-n1nnc2c1CCN(C(=O)c1cccc(C(F)(F)F)c1Cl)C2C (centres unmarked) [Example 258, (2-Chloro-3-(trifluoromethyl)phenyl)(1-(3-ethoxypyridin-2-yl)-4-methyl-6,7-dihydro-1H-[1,2,3]triazolo[4,5-c]pyridin-5(4H)-yl)methanone] | −3.2 | 4840 | – |
| CC1c2ncn(-c3cnccn3)c2CCN1C(=O)c1cccc(C(F)(F)F)c1F (centres unmarked) [Example 14, (2-Fluoro-3-(trifluoromethyl)phenyl)(4-methyl-1-(pyrazin-2-yl)-6,7-dihydro-1H-imidazo[4,5-c]pyridin-5(4H)-yl)methanone] | – | 141 | 12.8 |
| C[C@@H]1c2ncn(-c3ccccn3)c2CCN1C(=O)c1cccc(Cl)c1Cl (single isomer, unassigned) [Example 192, (R*)-(2,3-Dichlorophenyl)(4-methyl-1-(pyridin-2-yl)-6,7-dihydro-1H-imidazo[4,5-c]pyridin-5(4H)-yl)methanone] | −6.3 | 10000 | – |
| CC1c2ncn(-c3ncccn3)c2CCN1C(=O)c1cccc(C(F)(F)F)c1Cl (centres unmarked) [Example 23, (2-Chloro-3-(trifluoromethyl)phenyl)(4-methyl-1-(pyrimidin-2-yl)-6,7-dihydro-1H-imidazo[4,5-c]pyridin-5(4H)-yl)methanone] | 6.4 | 90.6 | – |
| Cc1ccc(-n2nnc3c2CCN(C(=O)c2cccc(C(F)(F)F)c2Cl)[C@@H]3C)nc1 (single isomer, unassigned) [Example 255, (R*)-(2-chloro-3-(trifluoromethyl)phenyl)(4-methyl-1-(5-methylpyridin-2-yl)-6,7-dihydro-1H-[1,2,3]triazolo[4,5-c]pyridin-5(4H)-yl)methanone] | −5.5 | 211 | – |
| O=C(c1cccc(C(F)(F)F)c1Cl)N1CCc2ncn(-c3ccccn3)c2C1 [Example 8, (2-Chloro-3-(trifluoromethyl)phenyl)(3-(pyridin-2-yl)-6,7-dihydro-3H-imidazo[4,5-c]pyridin-5(4H)-yl)methanone] | – | – | 83.1 |
| CC1Cc2c(nnn2-c2ncccc2F)CN1C(=O)c1cccc(C(F)(F)F)c1Cl (centres unmarked) [Example 122, 5-{[2-Chloro-3-(trifluoromethyl)phenyl]carbonyl}-1-(3-fluoropyridin-2-yl)-6-methyl-4,5,6,7-tetrahydro-1H-[1,2,3]triazolo[4,5-c]pyridine] | 0.2 | – | – |
| C[C@@H]1Cc2c(nnn2-c2ncccc2F)CN1C(=O)c1cccc(Cl)c1Cl (single isomer, unassigned) [Example 165, (6R*)-5-[(2,3-Dichlorophenyl)carbonyl]-1-(3-fluoropyridin-2-yl)-6-methyl-4,5,6,7-tetrahydro-1H-[1,2,3]triazolo[4,5-c]pyridine] | 60.7 | – | – |
| Cc1ccc(-n2nnc3c2CCN(C(=O)c2cccc(C(F)(F)F)c2Cl)[C@H]3C)nc1 (single isomer, unassigned) [Example 239, (S*)-(2-chloro-3-(trifluoromethyl)phenyl)(4-methyl-1-(5-methylpyridin-2-yl)-6,7-dihydro-1H-[1,2,3]triazolo[4,5-c]pyridin-5(4H)-yl)methanone] | 86.9 | – | – |
| C[C@H]1c2nnn(-c3ccn[nH]3)c2CCN1C(=O)c1cccc(C(F)(F)F)c1Cl (single isomer, unassigned) [Example 134, (S*)-(2-Chloro-3-(trifluoromethyl)phenyl)(4-methyl-1-(1H-pyrazol-5-yl)-6,7-dihydro-1H-[1,2,3]triazolo[4,5-c]pyridin-5(4H)-yl)methanone] | 12.3 | – | – |
| Cc1nc(-n2nnc3c2CCN(C(=O)c2cccc(C(F)(F)F)c2Cl)C3C)ncc1F (single isomer, unassigned) [Example 306, (S*)-(2-chloro-3-(trifluoromethyl)phenyl)(1-(5-fluoro-4-methylpyrimidin-2-yl)-4-methyl-6,7-dihydro-1H-[1,2,3]triazolo[4,5-c]pyridin-5(4H)-yl)methanone] | 2.5 | – | – |
| C[C@H]1Cc2c(nnn2-c2ncc(F)cn2)CN1C(=O)c1cccc(C(F)(F)F)c1 [Example 304, (S)-(1-(5-fluoropyrimidin-2-yl)-6-methyl-6,7-dihydro-1H-[1,2,3]triazolo[4,5-c]pyridin-5(4H)-yl)(3-(trifluoromethyl)phenyl)methanone] | 3.2 | – | – |
| COCCn1ccc(-n2nnc3c2CCN(C(=O)c2cccc(C(F)(F)F)c2Cl)[C@@H]3C)n1 (single isomer, unassigned) [Example 248, (R*)-(2-Chloro-3-(trifluoromethyl)phenyl)(1-(1-(2-methoxyethyl)-1H-pyrazol-3-yl)-4-methyl-6,7-dihydro-1H-[1,2,3]triazolo[4,5-c]pyridin-5(4H)-yl)methanone] | 74.3 | – | – |
| O=C(c1cccc(C(F)(F)F)c1Cl)N1CCc2c(ncn2-c2ccc(F)cn2)C1 [Example 315, (2-chloro-3-(trifluoromethyl)phenyl)(1-(5-fluoropyridin-2-yl)-6,7-dihydro-1H-imidazo[4,5-c]pyridin-5(4H)-yl)methanone] | 8.8 | – | – |
| C[C@@H]1Cc2c(nnn2-c2ccn[nH]2)[C@@H](C)N1C(=O)c1cccc(C(F)(F)F)c1Cl [Example 320, (2-chloro-3-(trifluoromethyl)phenyl)((4R,6R)-4,6-dimethyl-1-(1H-pyrazol-5-yl)-6,7-dihydro-1H-[1,2,3]triazolo[4,5-c]pyridin-5(4H)-yl)methanone] | −19.7 | – | – |
| C[C@H]1c2nnn(-c3cc(F)ccn3)c2CCN1C(=O)c1cccc(C(F)(F)F)c1Cl (single isomer, unassigned) [Example 149, (S*)-(2-Chloro-3-(trifluoromethyl)phenyl)(1-(4-fluoropyridin-2-yl)-4-methyl-6,7-dihydro-1H-[1,2,3]triazolo[4,5-c]pyridin-5(4H)-yl)methanone] | 3.5 | – | – |
